One assay has as its system skin equivalents. Conditions: irritant-treated skin equivalents; cited from earlier work.
Assay [1] relates to NIKS organotypic cultures. The assay is described as follows: IL-1α secretion by NIKS organotypic cultures (Quantikine IL-1α ELISA of media). Type of assay: cell-based, human. Conditions: 0.1% SDS applied topically, 24 hr, 37° C. As for the experimental part: Solutions of SDS (0.1%, 0.2%, and 0.5%) were topically applied to air-exposed NIKS organotypic cultures and incubated for 24 hr at 37° C. After 24 hr, the media underneath the cultures was assayed for IL-1α protein using a Quantikine IL-1α ELISA kit (R&D Systems, Minneapolis, Minn.) and cultures were incubated with MTS reagent (Promega Corp., Madison, Wis.) to determine cell viability. Media from untreated cultures contained 25 pg/ml IL-1α, whereas the concentration of IL-1α in cultures treated with 0.1%, 0.2% or 0.5% SDS was 290, 375 and 275 pg/ml respectively.

The subject of assay [2] is tracheobronchial epithelial cells. Conditions: cited from earlier work.
Assay [3] has as its system in vitro skin equivalent cultures. Conditions: substance added to in vitro cultures; cited from earlier work.
Assay [4] has the same test system. Conditions: substance added to in vitro cultures, cited from earlier work.

Where two headings read alike, the source gives them in different places.

The values that follow come from patent publication US7541188B2, “Skin substitutes and uses thereof” (Stratatech Corporation, priority 2001, dated 2009).

As for `CCCCCCCCCCCCOS(=O)(=O)[O-].[Na+]` [SDS], the “expression and secretion of the pro-inflammatory cytokines IL-1α and IL-8” value (from here on “expression and secretion”) in the assay with skin equivalents was “induce expression and secretion”. Besides, in assay [1], the “concentration of IL-1α in media” value amounted to 290 pg/mL.

In the case of `C=C1/C(=C\C=C2/CCC[C@]3(C)[C@@H]([C@H](C)/C=C/[C@@H](O)C4CC4)CC[C@@H]23)C[C@@H](O)C[C@@H]1O` [calcipotriol], in the assay with skin equivalents, the “expression and secretion” value is “induce expression and secretion”.

As for `CC1=C(/C=C/C(C)=C/C=C/C(C)=C/C(=O)O)C(C)(C)CCC1` [trans-retinoic acid], the “expression and secretion” value with skin equivalents was “induce expression and secretion”. Also, in assay [2], the “induction of reporter gene containing IL-8 promoter sequences between −1472 and +19” value was “induced”. “EGF: epidermal growth factor (NSDSECPLSHDGYCLHDGVCMYIEALDKYACNCVVGYIGERCQYRDLKWWELR; Epidermal growth factor; UniProt P01133 971-1023, looked up)”: the “Lipid Composition” value in assay [3] was “High”. Turning to Estrogen, the “Barrier Function” value in assay [4] was “Accelerates”. As to Vitamin D, the “Barrier Function” value is on record as “Improved/No” in assay [4] and “improvements in some studies” in assay [4] (listed as vitamin D).
